Experimental data published in US20130005568A1, “SAFENED HERBICIDAL MIXTURES” (E.I. DU PONT DE NEMOURS AND COMPANY, priority 2011, published 2013).

Key:
Test in all cases: Test G: turf grass and weed postemergence plant response rating
Zoysia grass = type: in vivo, Zoysia japonica Steud.; conditions: Zoysia grass, postemergence, greenhouse, three weeks, 0-100 scale
Excerpt: (§1) For all of the following biological tests, plant response ratings were based on a 0-100 scale where zero is growth equivalent to that of untreated plants (no plant response) and 100 represents no additional growth occurring after herbicide treatment.
(§2) Plants of the turf grass species: zoysia (Zoysia japonica Steud.), bermudagrass (Cynodon dactylon (L.) Pers.), tall fescue (Festuca arundinacea Shreib.), creeping bentgrass (Agrostis stoonoifera L.), perennial ryegrass (Lolium perenne L.) and hard fescue (Festuca species) were grown under greenhouse conditions for four months. Plants were clipped as needed to plant heights of 5-10 cm. Weeds typically found in turf: annual bluegrass (Poa annua L.), common chickweed (Stellaria media (L.) Vill.), large crabgrass (Digitaria sanguinales (L.) Scop.), dandelion (Taraxacum officinale Weber in Wiggers), goosegrass (Eleusine indica (L.) Gaertn.), henbit (Lamium amplexicaule L.), venice mallow (Hibiscus trionium L.) and purple nutsedge (Cyperus rotundus L.) were also grown under greenhouse conditions so that plants were 5-20 cm tall when they were treated. Herbicide mixtures were formulated, dissolved/dispersed in water containing 0.25% non-ionic surfactant, and sprayed postemergence to these turf grasses and weeds. Treated plants were grown under greenhouse conditions for three weeks before visual evaluations of plant responses were recorded.

Bermudagrass = type: in vivo, Cynodon dactylon (L.) Pers.; conditions: Bermudagrass, postemergence, greenhouse, three weeks, 0-100 scale
Excerpt: as §1
Plants of the turf grass species: zoysia (Zoysia japonica Steud.), bermudagrass (Cynodon dactylon (L.) Pers.), tall fescue (Festuca arundinacea Shreib.), creeping bentgrass (Agrostis stoonoifera L.), perennial ryegrass (Lolium perenne L.) and hard fescue (Festuca species) were grown under greenhouse conditions for four months. Plants were clipped as needed to plant heights of 5-10 cm. […] Herbicide mixtures were formulated, dissolved/dispersed in water containing 0.25% non-ionic surfactant, and sprayed postemergence to these turf grasses and weeds. Treated plants were grown under greenhouse conditions for three weeks before visual evaluations of plant responses were recorded.

Tall fescue = type: in vivo, Festuca arundinacea Shreib.; conditions: Tall fescue, postemergence, greenhouse, three weeks, 0-100 scale
Excerpt: as §1, §2

Hard fescue = type: in vivo, Festuca species; conditions: Hard fescue, postemergence, greenhouse, three weeks, 0-100 scale
Excerpt: as §1, §2

Creeping bentgrass = type: in vivo, Agrostis stoonoifera L.; conditions: Creeping bentgrass, postemergence, greenhouse, three weeks, 0-100 scale
Excerpt: as §1, §2

Perennial ryegrass = type: in vivo, Lolium perenne L.; conditions: Perennial ryegrass, postemergence, greenhouse, three weeks, 0-100 scale
Excerpt: as §1, §2

Annual bluegrass = type: in vivo, Poa annua L.; conditions: Annual bluegrass, postemergence, greenhouse, three weeks, 0-100 scale
Excerpt: as §1, §2

Chickweed = type: in vivo, Stellaria media (L.) Vill.; conditions: Chickweed, postemergence, greenhouse, three weeks, 0-100 scale
Excerpt: as §1, §2

Large crabgrass = type: in vivo, Digitaria sanguinales (L.) Scop.; conditions: Large crabgrass, postemergence, greenhouse, three weeks, 0-100 scale
Excerpt: as §1, §2

Dandelion = type: in vivo, Taraxacum officinale Weber in Wiggers; conditions: Dandelion, postemergence, greenhouse, three weeks, 0-100 scale
Excerpt: as §1, §2

Goosegrass = type: in vivo, Eleusine indica (L.) Gaertn.; conditions: Goosegrass, postemergence, greenhouse, three weeks, 0-100 scale
Excerpt: as §1, §2

Henbit = type: in vivo, Lamium amplexicaule L.; conditions: Henbit, postemergence, greenhouse, three weeks, 0-100 scale
Excerpt: as §1, §2

Venice mallow = type: in vivo, Hibiscus trionium L.; conditions: Venice mallow, postemergence, greenhouse, three weeks, 0-100 scale
Excerpt: as §1, §2

Purple nutsedge = type: in vivo, Cyperus rotundus L.; conditions: Purple nutsedge, postemergence, greenhouse, three weeks, 0-100 scale
Excerpt: as §1, §2

[1] = herbicide 80 g ai/ha + Compound 1 125 g ai/ha

COc1cc(OC)nc(NC(=O)NS(=O)(=O)c2ncccc2C(=O)N(C)C)n1 [Nicosulfuron, nicosulfuron]
Observed Response, Herbicide mixture with Compound 1 (Zoysia grass; [1]): 0 | Observed Response, Herbicide alone (Zoysia grass; herbicide 80 g ai/ha): 25 | Observed Response, Herbicide mixture with Compound 1 (Bermudagrass; [1]): 0 | Observed Response, Herbicide alone (Bermudagrass; herbicide 80 g ai/ha): 0 | Observed Response, Herbicide mixture with Compound 1 (Tall fescue; [1]): 60 | Observed Response, Herbicide alone (Tall fescue; herbicide 80 g ai/ha): 60 | Observed Response, Herbicide mixture with Compound 1 (Hard fescue; [1]): 30 | Observed Response, Herbicide alone (Hard fescue; herbicide 80 g ai/ha): 60 | Observed Response, Herbicide mixture with Compound 1 (Creeping bentgrass; [1]): 88 | Observed Response, Herbicide alone (Creeping bentgrass; herbicide 80 g ai/ha): 80 | Observed Response, Herbicide mixture with Compound 1 (Perennial ryegrass; [1]): 50 | Observed Response, Herbicide alone (Perennial ryegrass; herbicide 80 g ai/ha): 80 | Observed Response, Herbicide mixture with Compound 1 (Annual bluegrass; [1]): 100 | Observed Response, Herbicide alone (Annual bluegrass; herbicide 80 g ai/ha): 100 | Observed Response, Herbicide mixture with Compound 1 (Chickweed; [1]): 100 | Observed Response, Herbicide alone (Chickweed; herbicide 80 g ai/ha): 100 | Observed Response, Herbicide mixture with Compound 1 (Large crabgrass; [1]): 100 | Observed Response, Herbicide alone (Large crabgrass; herbicide 80 g ai/ha): 100 | Observed Response, Herbicide mixture with Compound 1 (Dandelion; [1]): 100 | Observed Response, Herbicide alone (Dandelion; herbicide 80 g ai/ha): 100 | Observed Response, Herbicide mixture with Compound 1 (Goosegrass; [1]): 90 | Observed Response, Herbicide alone (Goosegrass; herbicide 80 g ai/ha): 80 | Observed Response, Herbicide mixture with Compound 1 (Henbit; [1]): 100 | Observed Response, Herbicide alone (Henbit; herbicide 80 g ai/ha): 100 | Observed Response, Herbicide mixture with Compound 1 (Venice mallow; [1]): 80 | Observed Response, Herbicide alone (Venice mallow; herbicide 80 g ai/ha): 40 | Observed Response, Herbicide mixture with Compound 1 (Purple nutsedge; [1]): 80 | Observed Response, Herbicide alone (Purple nutsedge; herbicide 80 g ai/ha): 80
